Results from patent US4525347A, “Antiinflammatory analgesic gelled ointment” (Kowa Company Limited, priority 1983, dated 1985).
Where two headings read alike, the source gives them in different places.

Legend:
[1] = Skin absorption of indomethacin suspended in conventional ointment bases; type: in vivo, human beings; settings: topical
[2] = Effect of pH of the ointment on indomethacin (crystallization, decomposition); type: physicochemical
[3] = Topical administration of indomethacin: activity and adverse reactions; type: in vivo; settings: administered topically
[4] = Effect of adjuvant on skin absorption of indomethacin; type: in vivo; settings: combination with an adjuvant
[5] = in water and common media; cited from earlier work
[6] = cited from earlier work

COc1ccc2c(c1)c(CC(=O)O)c(C)n2C(=O)c1ccc(Cl)cc1 [indomethacin, Indomethacin]
absorption by the skin [1]: remain unabsorbed by the skin of human beings | decomposition of indomethacin ([2]; pH level above 7.5): decomposed indomethacin | crystallization during the ointment preparation ([2]; pH level below 4.8): crystallization of indomethacin | adverse reactions attributable to the administration of indomethacin [3]: completely eliminated | antiinflammatory analgesic activity, topical vs internal use [3]: to the same extent as attained by its internal use | absorption of indomethacin by the skin [4]: substantially increased | solubility [5]: only slightly soluble | adverse effects ([6]; oral use): gastroenteric disorders | adverse effects ([6]; suppository form, patient suffering from peptic ulcer): decreased appetite, nausea, vomiting, stomach ache, diarrhea and loose passage
